pKi: −log10 of the molar value.

The target of one series is human VMAT2 (Homo sapiens (Human), UniProt Q05940). Description: VMAT2 radioligand binding, 3H-dihydrotetrabenazine competition on human platelet homogenate. The note with it: 10 nM 3H-dihydrotetrabenazine, human platelet homogenate, 25° C., 90 minutes; read-out: VMAT2 Ki. The protocol: Examples of techniques for determining the capability of a compound to inhibit VMAT2 are provided below. The procedure was adapted from that described previously (see, e.g., Near, (1986), Mol. Pharmacol. 30: 252-57; Teng, et al., J. Neurochem. 71, 258-65, 1998). Homogenates from human platelets were prepared by homogenization and then washed by centrifugation as described previously (see, e.g., Hoare et al., (2003) Peptides 24:1881-97).
human VMAT2, sequence (Q05940 whole entry): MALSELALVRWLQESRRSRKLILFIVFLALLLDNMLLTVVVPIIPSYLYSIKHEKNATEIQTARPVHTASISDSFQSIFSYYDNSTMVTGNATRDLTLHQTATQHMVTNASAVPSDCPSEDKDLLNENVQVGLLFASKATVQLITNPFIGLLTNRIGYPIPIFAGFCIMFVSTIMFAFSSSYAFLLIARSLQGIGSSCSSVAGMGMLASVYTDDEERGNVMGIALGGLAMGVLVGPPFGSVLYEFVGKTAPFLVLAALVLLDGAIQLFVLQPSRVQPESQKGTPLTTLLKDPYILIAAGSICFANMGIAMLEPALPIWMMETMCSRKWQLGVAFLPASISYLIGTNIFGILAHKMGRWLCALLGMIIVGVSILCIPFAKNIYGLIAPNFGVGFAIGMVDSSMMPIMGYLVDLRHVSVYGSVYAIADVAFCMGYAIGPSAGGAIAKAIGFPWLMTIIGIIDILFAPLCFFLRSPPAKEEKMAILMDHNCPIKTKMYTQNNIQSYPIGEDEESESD
The human VMAT2 Ki values for the compounds listed in Table 15A and Table 15B were determined using the following procedures. Compound dilution series in DMSO were generated from either powder stocks by hand, or from DMSO stocks using serial dilution on a Vantage (Hamilton), or direct dilution using an Echo 655 (Beckman). In a total volume of 0.145 to 0.150 mL in low-binding 96-well plates (Corning #3605), twelve concentrations of test compound were competed against 10 nM ^3H-dihydrotetrabenezine (American Radiolabeled Chemicals) on human platelet homogenate (30 μg membrane protein per well) in VMAT2 binding buffer (Dulbecco's phosphate buffered saline, 1 mM EDTA, pH 7.4). Following incubation at 25° C. for 90 minutes, bound radioligand was collected by rapid filtration onto either GF/B or GF/C glass fiber filters, pretreated with 0.100 polyethylenimine, using either a Unifilter-96 Harvester (PerkinElmer) or Microlab Star (Hamilton). Following harvesting the filter plates were washed with 0.8 mL VMAT2 binding buffer, and bound radioligand was quantified by scintillation counting using a Topcount NXT or Microplate Counter Microbeta (PerkinElmer).

Series [1] is described as follows: Stability of compounds in human liver microsomes. The note with it: for CLint scaled at 0.5 μM / half-life at 0.5 μM: both sexes, pH 7.4; for CLint scaled at 0.5 μM: liver microsomes, calculated from HLM half-life, read-out: HLM Scaled Intrinsic Clearance; for CLint scaled at 0.5 μM / Predicted Max. Bioavailability (% F) / HLM Predicted Systemic Clearance: human; for half-life at 0.5 μM: 0.5 μM compound, 0.5 mg/mL human liver microsomes, 37° C., maxed at 420 minutes, read-out: HLM Elimination half-life (t1/2, min); for Predicted Max. Bioavailability (% F): predicted from HLM data; for HLM Predicted Systemic Clearance: scaled from HLM half-life (Obach method). The class given is in vitro ADME. The protocol: A test compound (0.5 μM) was incubated with pooled mixed gender liver microsomes from humans (0.5 mg/mL total protein) at 37° C. in the presence of an NADPH-generating system containing 50 mM, pH 7.4 potassium phosphate buffer, 3 mM magnesium chloride, 1 mM EDTA, 1 mM NADP, 5 mM glusose-6-phosphate, and 1 Unit/mL glucose-6-phosphate dehydrogenase. All concentrations were relative to the final incubation volume of 125 μL. Incubations were conducted at 37° C. for 0, 5, 10, 20, 40, and 60 minutes in a water bath and terminated by rapid mixing with 150 μL of ice-cold acetonitrile containing internal standard. Precipitated proteins were removed by centrifugation prior to LC-MS/MS analysis. Aliquots of the resulting supernatant fractions were analyzed by LC-MS/MS monitoring for depletion of parent compound. The resultant peak area ratio versus time data was fitted to a non-linear regression using XLfit Scientific Curve Fitting Software (IDBS Ltd., Surrey, UK) and the elimination half-life (t1/2, min) was calculated from the slope. […] Additional values calculated included predicted extraction ratio and predicted maximum bioavailability.

The term pKi denotes the negative decadic logarithm of the Ki, by convention in mol/L. As to `COc1cc2c(cc1OCCC(F)(F)F)CCN1C[C@H](CC(C)(C)C)[C@@H](O)C[C@@H]21` [Compound 4-9, (2S,3S,11bS)-3-(2,2-dimethylpropyl)-10-methoxy-9-(3,3,3-trifluoropropoxy)-1H,2H,3H,4H,6H,7H,11bH-pyrido[2,1-a]isoquinolin-2-ol], the negative logarithm of the Ki (pKi) on human VMAT2 was 6.56. Besides, in series [1], the CLint scaled at 0.5 μM is at most 2.97 mL/min/kg, the half-life at 0.5 μM was at least 420 min, the “Predicted Max. Bioavailability (% F)” value was at least 87 % F and the “HLM Predicted Systemic Clearance” value was at most 2.59 mL/min/kg.
The matching figures for `COc1cc2c(cc1OCC(F)F)CCN1C[C@@H](CC(C)(C)C)[C@@H](O)C[C@H]21` [Compound 4-10, (2S,3R,11bR)-9-(2,2-difluoroethoxy)-3-(2,2-dimethylpropyl)-10-methoxy-1H,2H,3H,4H,6H,7H,11bH-pyrido[2,1-a]isoquinolin-2-ol]: 7.82, 3.65 mL/min/kg, 342 min, 85 % F and 3.09 mL/min/kg.
On to `COc1cc2c(cc1OCC(C)(F)F)CCN1C[C@@H](CC(C)(C)C)[C@@H](O)C[C@H]21` [Compound 4-11, (2S,3R,11bR)-9-(2,2-difluoropropoxy)-3-(2,2-dimethylpropyl)-10-methoxy-1H,2H,3H,4H,6H,7H,11bH-pyrido[2,1-a]isoquinolin-2-ol], for which the negative logarithm of the Ki (pKi) at human VMAT2 was 7.85. Moreover, in series [1], the CLint scaled at 0.5 μM was at most 2.97 mL/min/kg, the half-life at 0.5 μM is at least 420 min, the “Predicted Max. Bioavailability (% F)” value is at least 87 % F and the “HLM Predicted Systemic Clearance” value was at most 2.59 mL/min/kg.
Taken in the same sequence, the figures for `COc1cc2c(cc1OCCC(F)(F)F)CCN1C[C@@H](CC(C)(C)C)[C@@H](O)C[C@H]21` [Compound 4-12, (2S,3R,11bR)-3-(2,2-dimethylpropyl)-10-methoxy-9-(3,3,3-trifluoropropoxy)-1H,2H,3H,4H,6H,7H,11bH-pyrido[2,1-a]isoquinolin-2-ol] were 8.47, at most 2.97 mL/min/kg, at least 420 min, at least 87 % F and at most 2.59 mL/min/kg.
Taken in the same sequence, the figures for `COc1cc2c(cc1OCC(F)F)CCN1C[C@@H](CC(C)(C)C)[C@H](O)C[C@H]21` [Compound 4-13, (2R,3R,11bR)-9-(2,2-difluoroethoxy)-3-(2,2-dimethylpropyl)-10-methoxy-1H,2H,3H,4H,6H,7H,11bH-pyrido[2,1-a]isoquinolin-2-ol] were 8.66, at most 2.97 mL/min/kg, at least 420 min, at least 87 % F and at most 2.59 mL/min/kg.
The matching figures for `COc1cc2c(cc1OCC(C)(F)F)CCN1C[C@@H](CC(C)(C)C)[C@H](O)C[C@H]21` [Compound 4-14, (2R,3R,11bR)-9-(2,2-difluoropropoxy)-3-(2,2-dimethylpropyl)-10-methoxy-1H,2H,3H,4H,6H,7H,11bH-pyrido[2,1-a]isoquinolin-2-ol]: 8.59, at most 2.97 mL/min/kg, at least 420 min, at least 87 % F and at most 2.59 mL/min/kg.
As to `COc1cc2c(cc1OCC(F)(F)F)CCN1C[C@@H](CC(C)(C)C)[C@@H](O)C[C@H]21` [Compound 4-16, (2S,3R,11bR)-3-(2,2-dimethylpropyl)-10-methoxy-9-(2,2,2-trifluoroethoxy)-1H,2H,3H,4H,6H,7H,11bH-pyrido[2,1-a]isoquinolin-2-ol], at human VMAT2, the negative logarithm of the Ki (pKi) was 7.66. Moreover, in series [1], the CLint scaled at 0.5 μM was at most 2.97 mL/min/kg, the half-life at 0.5 μM was at least 420 min, the “Predicted Max. Bioavailability (% F)” value is at least 87 % F and the “HLM Predicted Systemic Clearance” value was at most 2.59 mL/min/kg.
The matching figures for `CCOc1cc2c(cc1OC)[C@H]1C[C@@H](O)[C@H](CC(C)(C)C)CN1CC2` [Compound 4-17, (2R,3R,11bR)-3-(2,2-dimethylpropyl)-9-ethoxy-10-methoxy-1H,2H,3H,4H,6H,7H,11bH-pyrido[2,1-a]isoquinolin-2-ol]: 8.96, 32.9 mL/min/kg, 38 min, 38 % F and 12.44 mL/min/kg.
Take `CCC(O)(CC)COc1cc2c(cc1OC)[C@H]1C[C@@H](O)[C@H](CC(C)(C)C)CN1CC2` [Compound 4-93, (2R,3R,11bR)-3-(2,2-dimethylpropyl)-9-(2-ethyl-2-hydroxybutoxy)-10-methoxy-1H,2H,3H,4H,6H,7H,11bH-pyrido[2,1-a]isoquinolin-2-ol]: the pKi on human VMAT2 is 6.55.
The same measure, in the same setting: to `COc1cc2c(cc1OCC1(OS(C)(=O)=O)CC1)CCN1C[C@@H](CC(C)(C)C)[C@H](O)C[C@H]21` [Compound 4-94, 1-({[(2R,3R,11bR)-3-(2,2-dimethylpropyl)-2-hydroxy-10-methoxy-1H,2H,3H,4H,6H,7H,11bH-pyrido[2,1-a]isoquinolin-9-yl]oxy}methyl)cyclopropyl methanesulfonate] belongs 6.41.
`COc1cc2c(cc1OCc1ncno1)CCN1C[C@@H](CC(C)(C)C)[C@H](O)C[C@H]21` [Compound 4-95, (2R,3R,11bR)-3-(2,2-dimethylpropyl)-10-methoxy-9-(1,2,4-oxadiazol-5-ylmethoxy)-1H,2H,3H,4H,6H,7H,11bH-pyrido[2,1-a]isoquinolin-2-ol]: at human VMAT2, the negative-log Ki (pKi) is under 5.00.
Still for that read-out and setting: to `COc1cc2c(cc1OCC1(S(C)(=O)=O)CC1)CCN1C[C@@H](CC(C)(C)C)[C@H](O)C[C@H]21` [Compound 4-96, (2R,3R,11bR)-3-(2,2-dimethylpropyl)-9-[(1-methanesulfonylcyclo-propyl)methoxy]-10-methoxy-1H,2H,3H,4H,6H,7H,11bH-pyrido[2,1-a]isoquinolin-2-ol] belongs under 5.00; to `COc1cc2c(cc1OCC1CCS(=O)(=O)CC1)CCN1C[C@@H](CC(C)(C)C)[C@H](O)C[C@H]21` [Compound 4-97, 4-({[(2R,3R,11bR)-3-(2,2-dimethylpropyl)-2-hydroxy-10-methoxy-1H,2H,3H,4H,6H,7H,11bH-pyrido[2,1-a]isoquinolin-9-yl]oxy}methyl)-1λ^6-thiane-1,1-dione], under 5.00.
Same read-out and setting: to `COc1cc2c(cc1OC)[C@@H]1C[C@H](O)[C@@H](CC(C)(C)C)CN1CC2` [Compound 5-3, (2S,3S,11bS)-3-(2,2-dimethylpropyl)-9,10-dimethoxy-1H,2H,3H,4H,6H,7H,11bH-pyrido[2,1-a]isoquinolin-2-ol] belongs 6.15; to `COc1cc2c(cc1OC)[C@@H]1C[C@@H](O)[C@@H](CC(C)(C)C)CN1CC2` [Compound 5-4, (2R,3S,11bS)-3-(2,2-dimethylpropyl)-9,10-dimethoxy-1H,2H,3H,4H,6H,7H,11bH-pyrido[2,1-a]isoquinolin-2-ol], under 5.00.

(Values after US11718618B2, “Substituted pyrido[2,1-a]isoquinolines as VMAT2 inhibitors” (priority 2021, dated 2023).)
